Structures can show the parent of a compound that is named as a salt. Where two headings read alike, the source gives them in different places.
Key:
[1] = molecular target: T1, σ2-receptor (Mus musculus, UniProt Q8VD00); assay: Sigma-2 receptor binding, [3H]-DTG, brains from sigma-1 knockout mice; conditions: for inhibition at 1 µM: 2 h, tested compound at 10^-6 M, [3H]-DTG 3 nM, read-out: binding sigma-2 (*) % of radioactively labeled compound replaced by the tested compound; for Ki: [3H]-DTG, sigma-1 knockout mouse brain
T1 construct: brains from sigma receptor type I (sigma-1) knockout mice were homogenized; from tissue; host or cells: brain membranes of sigma-1 knockout mice
T1 sequence (Q8VD00 1-176): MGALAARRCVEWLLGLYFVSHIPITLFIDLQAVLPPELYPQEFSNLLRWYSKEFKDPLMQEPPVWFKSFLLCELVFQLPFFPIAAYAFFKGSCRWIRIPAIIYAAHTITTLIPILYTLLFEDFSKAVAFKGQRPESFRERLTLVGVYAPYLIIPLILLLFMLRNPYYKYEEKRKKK
Protocol: In brief, brains from sigma receptor type I (sigma-1) knockout mice were homogenized in a volume of 10 mL/g tissue net weight of ice-cold 10 mM Tris-HCl, pH 7.4, containing 320 mM sucrose (Tris-sucrose buffer) with a Potter-Elvehjem homogenizer (10 strokes at 500 r.p.m.) The homogenates were then centrifuged at 1000 g for 10 min at 4° C., and the supernatants were saved. The pellets were resuspended by vortexing in 2 mL/g ice-cold Tris-sucrose buffer and centrifuged again at 1000 g for 10 min. The combined 1000 g supernatants were centrifuged at 31000 g for 15 min at 4° C. The pellets were resuspended by vortexing in 3 mL/g 10 mM Tris-HCl, pH 7.4, and the suspension was kept at 25° C. for 15 min.
The assay tubes contained 10 μL of [^3H]-DTG (final concentration of 3 nM), 400 μL of the tissue suspension (5.3 mL/g in 50 mM Tris-HCl, pH 8.0) to a final assay volume of 0.5 mL. Non-specific binding was defined by addition of a final concentration of 1 μM haloperidol. […] Filters were washed with three times with 5 mL volumes of cold Tris-HCl buffer (10 mM, pH 8.0). Following addition of scintillation cocktail samples were allowed to equilibrate overnight.

[2] = molecular target: T2, σ1-receptor (Cavia porcellus, UniProt Q60492); assay: Sigma-1 receptor binding, [3H](+)-pentazocine, brain membranes; parameters: species or system guinea pig; conditions: for inhibition at 1 µM: 2.5 h, read-out: binding sigma-1 (*) % of radioactively labeled compound replaced by the tested compound
T2 construct: guinea pig brains were homogenized; from tissue; host or cells: guinea pig brain membranes

[3] = tested compound at 10^-6 M, [3H](+)-pentazocine 0.5 nM
[4] = [3H](+)-pentazocine, guinea pig brain membranes, read-out: binding sigma-1 Ki

T2 sequence (Q60492 whole entry): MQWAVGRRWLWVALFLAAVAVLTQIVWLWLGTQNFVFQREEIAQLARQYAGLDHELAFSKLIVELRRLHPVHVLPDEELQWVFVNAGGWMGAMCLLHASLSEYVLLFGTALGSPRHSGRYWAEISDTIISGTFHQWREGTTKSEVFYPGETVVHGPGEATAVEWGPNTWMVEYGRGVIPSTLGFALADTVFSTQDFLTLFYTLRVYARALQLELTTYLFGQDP

| SMILES | inhibition at 1 µM [1] [%] | Ki [1] [nM] | inhibition at 1 µM [2, 3] [%] | Ki [2, 4] [nM] | melting point [°C] | Ki [2] [nM] | inhibition at 1 µM [2] [%] |
| --- | --- | --- | --- | --- | --- | --- | --- |
| C(/CN1CCc2ccccc2C1)=C1/CCCc2c1cnn2-c1ccccc1.O=C(O)C(=O)O | – | – | – | – | 217 to 218 | – | – |
| C(/CN1CCC(c2ccccc2)C1)=C1/CCCc2c1cnn2-c1ccccc1.O=C(O)C(=O)O (stereo not shown) | – | – | – | – | 178 to 181 | – | – |
| C(/CN1Cc2ccccc2C1)=C1/CCCc2c1cnn2-c1ccccc1 | – | – | – | – | 130 to 131 | – | – |
| O=C(O)C(=O)O.c1ccc(N2CCN(CCC3CCCc4c3cnn4-c3ccccc3)CC2)cc1 (stereo not shown) | – | – | – | – | 177 to 180 | – | – |
| O=C(O)C(=O)O.c1ccc(CN2CCN(CCC3CCc4c3cnn4-c3ccccc3)CC2)cc1 (stereo not shown) | – | – | – | – | 215 to 218 | – | – |
| Cn1ncc2c1CCCC2CCN1CCOCC1.O=C(O)C(=O)O (stereo not shown) | – | – | – | – | 137.7 to 139.3 | – | – |
| Fc1ccc(-n2ncc3c2CCCC3CCN2Cc3ccccc3C2)cc1.O=C(O)C(=O)O (stereo not shown) | – | – | – | – | 176 to 179 | – | – |
| c1ccc(-n2ncc3c2CCCC3CCN2CCOCC2)cc1 (stereo not shown) (as salt: oxalate) [Example 2, 4,5,6,7-tetrahydro-4-(2-(morpholin-4-yl)ethyl)-1-phenyl-1H-indazole oxalate] | – | – | – | – | 150 to 151 | – | – |
| Clc1ccc(-n2ncc3c2CCCC3CCN2CCC(c3ccccc3)CC2)cc1Cl (stereo not shown) (as salt: oxalate) [Example 4, 1-(3,4-dichlorophenyl)-4,5,6,7-tetrahydro-4-(2-(4-phenylpiperidin-1-yl)ethyl)-1H-indazole oxalate] | – | – | – | – | 133 to 134 | – | – |
| O=C(O)C(=O)O.c1ccc(-n2ncc3c2CCCC3CCN2CCOCC2)cc1 (single isomer, unassigned; (+)) [Example 74, (+)-4,5,6,7-tetrahydro-4-(2-(morpholin-4-yl)ethyl)-1-phenyl-1H-indazole oxalate] | – | – | – | – | 175 to 176 | – | – |
| Clc1ccc(-n2ncc3c2CCCC3CCN2CCOCC2)cc1Cl.O=C(O)C(=O)O (stereo not shown) [Example 7, 1-(3,4-dichlorophenyl)-4,5,6,7-tetrahydro-4-(2-(morpholin-4-yl)ethyl)-1H-indazole oxalate] | 98.1 | – | 100 | 4.3 | 148 to 149.8 | – | – |
| O=C(O)C(=O)O.c1ccc(C2CCN(CCC3CCCc4c3cnn4-c3ccccc3)CC2)cc1 (stereo not shown) [Example 9, 4,5,6,7-tetrahydro-1-phenyl-4-(2-(4-phenylpiperidin-1-yl)ethyl)-1H-indazole oxalate] | 107 | 37.5 | 101 | 1.5 | 124 to 125 | – | – |
| O=C(O)C(=O)O.c1ccc(-n2ncc3c2CCCC3CCN2CCC3(CC2)OCc2ccccc23)cc1 (stereo not shown) [Example 12, 4,5,6,7-tetrahydro-1-phenyl-4-(2-[spiro[isobenzofuran-1(3H), 4′-piperidin]-1′-yl]ethyl)-1H-indazole oxalate] | 98.8 | 37 | – | – | 133 to 135 | 0.9 | 100 |
| O=C(O)C(=O)O.c1ccc(-n2ncc3c2CCCC3CCN2CCCCC2)cc1 (stereo not shown) [Example 14, 4,5,6,7-tetrahydro-1-phenyl-4-(2-(piperidin-1-yl)ethyl)-1H-indazole oxalate] | 89 | – | 99.8 | 2.3 | 185 to 188 | – | – |
| C(/CN1CCCCCC1)=C1/CCCc2c1cnn2-c1ccccc1.O=C(O)C(=O)O [Example 16, (E)-4-(2-(azepan-1-yl)ethylidene)-4,5,6,7-tetrahydro-1-phenyl-1H-indazole oxalate] | 93 | – | 99.9 | 1.5 | 171 to 173 | – | – |
| c1ccc(-n2ncc3c2CCC3CCN2CCCCC2)cc1 (stereo not shown) [Example 37, 1,4,5,6-tetrahydro-1-phenyl-4-(2-(piperidin-1-yl)ethyl)cyclopenta[c]pyrazole] | 79.9 | – | 102 | 1.1 | – | – | – |
| c1ccc(-n2ncc3c2CCC3CCN2CCCC2)cc1 (stereo not shown) [Example 40, 1,4,5,6-tetrahydro-1-phenyl-4-(2-(pyrrolidin-1-yl)ethyl)cyclopenta[c]pyrazole oxalate] | 97.3 | – | 101 | 3.5 | – | – | – |
| Fc1ccc(-n2ncc3c2CCCC3CCN2CCOCC2)cc1.O=C(O)C(=O)O (stereo not shown) [Example 66, 1-(4-fluorophenyl)-4,5,6,7-tetrahydro-4-(2-(morpholin-4-yl)ethyl)-1H-indazole oxalate] | – | – | 98.1 | 2.4 | 148 to 151 | – | – |
| CN(CCC1CCCc2c1cnn2-c1ccc(F)cc1)Cc1ccccc1 (stereo not shown) [Example 69, N-benzyl-2-(1-(4-fluorophenyl)-4,5,6,7-tetrahydro-1H-indazol-4-yl)-N-methylethanamine] | 99.3 | 21.7 | 103 | 2.6 | – | – | – |
| Fc1ccc(-n2ncc3c2CCCC3CCN2Cc3ccccc3C2)cc1 (stereo not shown) [Example 70, 1-(4-fluorophenyl)-4,5,6,7-tetrahydro-4-(2-(isoindolin-2-yl)ethyl)-1H-indazole] | 108 | 14.4 | 100 | 16.2 | – | – | – |
| Fc1ccc(-n2ncc3c2CCCC3CCN2CCC(c3ccccc3)CC2)cc1 (stereo not shown) [Example 72, 1-(4-fluorophenyl)-4,5,6,7-tetrahydro-4-(2-(4-phenylpiperidin-1-yl)ethyl)-1H-indazole] | – | – | – | – | 93 to 94.5 | – | – |
| c1ccc(-n2ncc3c2CCC3CCN2CCSCC2)cc1 (stereo not shown) [Example 97, 1,4,5,6-tetrahydro-1-phenyl-4-[2-(thiomorpholin-4-yl)ethyl]cyclopenta[c]pyrazole oxalate] | – | – | 102 | 0.62 | – | – | – |

The next lines start with results.

| inhibition at 1 µM [1] [%] | Ki [1] [nM] | inhibition at 1 µM [2, 3] [%] | Ki [2, 4] [nM] | SMILES | melting point [°C] | Ki [2] [nM] | inhibition at 1 µM [2] [%] |
| --- | --- | --- | --- | --- | --- | --- | --- |
| 98 | 316 | 100 | 10.6 | Clc1ccc(-n2ncc3c2CCCC3CCN2CCC(c3ccccc3)CC2)cc1Cl (stereo not shown) [Example 4, 1-(3,4-dichlorophenyl)-4,5,6,7-tetrahydro-4-(2-(4-phenylpiperidin-1-yl)ethyl)-1H-indazole oxalate] | – | – | – |
| 39 | – | 94 | 37.2 | C(/CN1CCOCC1)=C1/CCCc2c1cnn2-c1ccccc1 [Example 5, (E)-4,5,6,7-tetrahydro-4-(2-(morpholin-4-yl)ethylidene)-1-phenyl-1H-indazole] | 114 to 116 | – | – |
| 70.2 | – | 100 | 6.1 | c1ccc(CN2CCN(CCC3CCCc4c3cnn4-c3ccccc3)CC2)cc1 (stereo not shown) [Example 10, 4-(2-(4-benzylpiperazin-1-yl)ethyl)-4,5,6,7-tetrahydro-1-phenyl-1H-indazole] | 98 to 101 | – | – |
| 83.8 | 186 | 100 | 2.5 | C(/CN1CCC(c2ccccc2)CC1)=C1/CCCc2c1cnn2-c1ccccc1 [Example 17, (E)-4,5,6,7-tetrahydro-1-phenyl-4-(2-(4-phenylpiperidin-1-yl)ethylidene)-1H-indazole] | – | – | – |
| 103 | 49.5 | 100 | 1.1 | C(/CN1CCC(c2ccccc2)C1)=C1/CCCc2c1cnn2-c1ccccc1 (stereo not shown) [Example 24, (E)-4,5,6,7-tetrahydro-1-phenyl-4-(2-(3-phenylpyrrolidin-1-yl)ethylidene)-1H-indazole] | – | – | – |
| 77 | – | 99.6 | 7.5 | C(/CN1CCCCC1)=C1/CCCc2c1cnn2-c1ccccc1 [Example 27, (E)-4,5,6,7-tetrahydro-1-phenyl-4-(2-(piperidin-1-yl)ethylidene)-1H-indazole] | – | – | – |
| 104 | – | 106 | 3.9 | CN(CCC1CCc2c1cnn2-c1ccccc1)Cc1ccccc1 (stereo not shown) [Example 52, N-benzyl-2-(1,4,5,6-tetrahydro-1-phenylcyclopenta[c]pyrazol-4-yl)-N-methylethanamine] | – | – | – |
| 100 | – | 105 | 8.7 | CN(CCC1CCCc2c1cnn2-c1ccccc1)Cc1ccccc1 (stereo not shown) [Example 54, N-benzyl-2-(4,5,6,7-tetrahydro-1-phenyl-1H-indazol-4-yl)-N-methylethanamine] | – | – | – |
| – | – | 103 | 1.9 | CC1CCN(CCC2CCCc3c2cnn3-c2ccccc2)CC1 (stereo not shown) [Example 94, 4,5,6,7-Tetrahydro-4-(2-(4-methylpiperidin-1-yl)ethyl)-1-phenyl-1H-indazole oxalate] | – | – | – |
| – | – | 102 | 1.5 | CC1CCN(CCC2CCc3c2cnn3-c2ccccc2)CC1 (stereo not shown) [Example 99, 1,4,5,6-tetrahydro-4-(2-(4-methylpiperidin-1-yl)ethyl)-1-phenylcyclopenta[c]pyrazole oxalate] | – | – | – |

Reference: patent US8394797B2, “Substituted pyrazole sigma receptor antagonists” (Laboratorios Del Dr. Esteve, S.A., priority 2004, dated 2013)
